Usually CC50 stands for the concentration that lowers cell viability or growth by half. In general, MIC50 refers to the lowest concentration that inhibits either 50% of growth or 50% of the strains tested, depending on the study. A word on the MIC90: it is the lowest concentration that inhibits either 90% of growth or 90% of the strains tested, depending on the study.

Like-named read-outs stand apart in the source and are kept apart here. Marks after values point to notes of the source that are not given here. Where only a bound is given, the exact number is not on record here.

Results on two compounds are retold here after patent publication US7285567B2, “Halogenated benzamide derivatives” (Romark Laboratories, L.C., priority 2005, dated 2007).

For series [1], the system named is Coronavirus: canine coronavirus strain S-378. Put plainly: microbe, parasite or virus in culture. It counts as cell-based. As to conditions: canine coronavirus strain S-378, A72 cell culture.
Series [2] in a line: Cytotoxicity in AVA5 cells (neutral red dye uptake). It counts as cell-based, human. Particulars: human, 2-fold depression of neutral red dye uptake. Here is the method:
(§1) Anti-Hepatitis C Virus (HCV) analyses and an assessment of cytotoxicity were performed in a 3-day assay in the HCV replicon-containing human hepatoblastoma cell line, AVA5 (Okuse, C., Rinaudo, J. A., Farrar, K., Wells, F. & Korba, B. E. Enhancement of antiviral activity against hepatitis C virus in vitro by interferon combination therapy. Antivir. Res. 65, 23-34 (2005)) as previously described (Blight, K. J., Kolykhalov, A. A. & Rice, C. M. Efficient initiation of HCV RNA replication in cell culture. Science 290, 1972-1974 (2000)).
(§2) Values presented (±standard deviations [S.D.]) were calculated by linear regression analysis using data combined from all treated cultures. S.D. were calculated using the standard error of regression generated from the linear regression analyses (QuattroPro™). EC50, EC90=drug concentration at which a 2-fold, or a 10-fold depression of HCV RNA (relative to the average levels in untreated cultures), respectively, was observed. CC50=drug concentration at which a 2-fold depression of neutral red dye uptake was observed relative to the average levels in untreated cultures. Selectivity index=CC50/EC50.

In series [3] the test system is anaerobic bacteria (all 142 isolates). Put plainly: CLSI agar dilution MIC, all anaerobic clinical isolates. It counts as cell-based. (In agar dilution the substance is mixed into plates at graded concentrations.)
Series [4] deals with clostridia. Put plainly: organism not typed. It counts as cell-based. As to conditions: Clostridia (18 isolates), agar dilution, 48 h.
The test system of series [5] is Paramyxovirus: Sendai virus. Put plainly: microbe, parasite or virus in culture. It counts as cell-based. Particulars: Sendai virus, 37RC cell culture (Table 1).
For series [6], the system named is Rotavirus: Simian Rotavirus SA-11. Put plainly: microbe, parasite or virus in culture. It counts as cell-based. As to conditions: Simian rotavirus SA-11, MA104 cell culture.
Series [7] deals with Prevotella/Porphyromonas. Put plainly: CLSI agar dilution MIC, anaerobic clinical isolates. It counts as cell-based. Particulars: Prev/Porphy (26 isolates), 48 h. Here is the method:
(§3) Methods. Recent clinical anaerobic isolates (2000 to date) comprised 40 B. fragilis group, 26 Prevotella/Porphyromonas, 28 fusobacteria, 16 anaerobic Gram positive cocci, 14 anaerobic Gram-positive non-sporeforming rods and 18 clostridia. CLSI agar dilution MIC methodology with enriched Brucella blood agar and inocula of 1×10^5 cfu/spot was used. Plates were incubated in an anaerobic glove box at 35° C. for 48 h. Results.

Series [8] concerns B. fragilis group. The description is as above. It counts as cell-based. As to conditions: Bacteroides fragilis, B. fragilis gp (40 isolates), 48 h, 35° C. Here is the method:
as §3

For series [9], the system named is fusobacteria. The series is described as above. It counts as cell-based. Particulars: Fusobacteria (28 isolates), 48 h. Here is the method: as §3
The test system of series [10] is anaerobic Gram positive cocci. The series is described as above. It counts as cell-based. Particulars: Gram + cocci (16 isolates), 48 h.
Series [11] can be described thus: Cytotoxicity in 2.2.15 cells (neutral red dye uptake). It counts as cell-based. As to conditions: human, 2-fold depression of neutral red dye uptake. Here is the method:
(§4) Anti-Hepatitis B Virus (HBV) analyses and an assessment of cytotoxicity were performed in a 9-day assay in the chronically-producing HBV human hepatoblastoma cell line, 2.2.15, as previously described (Korba, B. E. & Gerin, J. L. Use of a standardized cell culture assay to assess activities of nucleosides analogues against hepatitis B virus replication. Antivir. Res. 19, 55-70 (1992)).
(§5) Values presented (±standard deviations [S.D.]) were calculated by linear regression analysis using data combined from all treated cultures. S.D. were calculated using the standard error of regression generated from linear regression analyses (QuattroPro™). EC50, EC90=drug concentration at which a 2-fold, or a 10-fold depression of HBV DNA (relative to the average levels in untreated cultures), respectively, was observed, CC50=drug concentration at which a 2-fold depression of neutral red dye uptake (relative to the average levels in untreated cultures) was observed, The EC90 values were used for the calculation of the Selectivity Indexes [S.I.] since at least a 3-fold depression of HBV levels is typically required to achieve statistical significance in this assay system. HBV R.I.=intracellular HBV DNA replication intermediate.

Series [12] relates to Herpes Simplex type 1: strain F1. Put plainly: microbe, parasite or virus in culture. It counts as cell-based, Herpes Simplex virus type 1. Particulars: Herpes Simplex type 1 strain F1, HEp-2 cell culture.
Series [13] concerns anaerobic Gram-positive non-sporeforming rods. Put plainly: CLSI agar dilution MIC, anaerobic clinical isolates. It counts as cell-based. As to conditions: Gram + rods (14 isolates), 48 h.
The subject of series [14] is Influenza A: PR8 strain. Put plainly: microbe, parasite or virus in culture. It counts as cell-based, Influenza A virus.
In series [15] the test system is Hepatitis B Virus (HBV). Put plainly: HBV replication in 2.2.15 cell culture, 9-day assay. Particulars: for EC50 / EC90: Hepatitis B virus, 2.2.15 cells. It counts as cell-based. Here is the method:
as §4, §5

In series [16] the test system is Rhabdovirus: Vesicular stomatitis virus. Put plainly: microbe, parasite or virus in culture. It counts as cell-based.
Series [17] has as its system hepatitis C virus (HCV) replicon. Put plainly: HCV replication in AVA5 replicon cell culture, 3-day assay. It counts as cell-based. Particulars: AVA5 cells; for EC50: 2-fold depression of HCV RNA; for EC90: 10-fold depression of HCV RNA. As for the experimental part:
as §1, §2
For orientation: Replicon systems follow genome replication, usually without infectious particles.

Series [18] has as its system AVA5 cells. Put plainly: Cytotoxicity in AVA5 cells (neutral red dye uptake). It counts as cell-based, human. As to conditions: neutral red dye uptake, values for interferon. Here is the method: as §1, §2
The mark [19] stands for this setting: All (142 isolates), agar dilution, 48 h.

For `Cc1cccc(C(=O)Nc2ncc(Br)s2)c1O` [RM-4819, 2-(hydroxy)-3-methyl-N-(5-bromo-2-thiazolyl)benzamide], the EC50 was 4.9 µM in series [1] (Alphacoronavirus 1, A-72); 1.3 µM in series [5] (Respirovirus muris); 0.3 µM in [6] (Rotavirus A); 0.6 µM in series [12] (Human alphaherpesvirus 1); 9.6 µM in series [14] (Influenza A virus, PR8, MDCK); 3.5 ± 0.5 µM in series [15] (2-fold depression of HBV DNA, read-out: Extracellular Virion DNA EC50). Besides, the EC50 in series [15] (intracellular HBV DNA replication intermediate, 2-fold depression, read-out: Intracellular HBV R.I. EC50) was found to be 7.6 ± 0.9 µM; in series [16] (MA104), 1.6 µM; in series [17] (Hepatitis C virus, read-out: EC50) it was 8.9 ± 0.7 µM. Also, the “SI (selectivity index) = CC50/EC50” value in [1] (CC50 by MTT) was over 33; in series [5] (CC50 by MTT), over 125; in series [6] (CC50 by MTT), over 500; in series [12] (CC50 by MTT) it was over 250; in [14] (Influenza A PR8 strain, MDCK cell culture, CC50 by MTT) it was over 17; in [16] (MA104 cell culture, CC50 by MTT) it was over 100. The CC50 at 3 day in series [2] came to 164 ± 18 µM. The MIC50 in [3] (setting [19]), in series [4] (read-out: MIC50), in [7], in series [8], in series [9] and in series [10] was over 32 µg/mL each time. In series [13], the MIC50 is over 32 µg/mL. Also, the MIC90 in series [3] (setting [19]), in [4] (read-out: MIC90), in series [7], in series [8], in series [9] and in [10] was over 32 µg/mL each time. Further, the MIC90 in series [13] is over 32 µg/mL. For the same compound, the “Activity against anaerobic bacteria groups (summary in words)” value in [3] (summary of MIC results) is listed as “without significant activity”. This compound registered a CC50 at 9 day in [11] of over 1000 µM. In addition, the EC90 in series [15] (10-fold depression of HBV DNA, read-out: Extracellular Virion DNA EC90) worked out at 9 ± 0.8 µM; in series [15] (intracellular HBV DNA replication intermediate, 10-fold depression, read-out: Intracellular HBV R.I. EC90) it was 22 ± 2.6 µM; in series [17] (Hepatitis C virus, read-out: EC90) it was 79 ± 8.2 µM. For the same compound, in [15] (calculated with EC90 values (CC50/EC90), HBV R.I.), the “Selectivity Index R.I.” value is recorded as over 46. The “Selectivity Index Virion” value in series [15] (calculated with EC90 values (CC50/EC90), virion DNA) is over 111. Moreover, the “Selectivity Index” value in series [17] (CC50/EC50) is listed as 18.
Take ∝ - Interferon: the cytotoxic concentration (CC50) in series [18] is reported as >10,000*^§ IU/ml. For the same compound, in [17] (values for interferon), the EC50 was found to be 2.2 ± 0.2 IU/ml and the EC90 was found to be 8.5 ± 0.6 IU/ml.
